Laboratory results taken from patent US11985974B2, “Antimicrobial ferulic acid derivatives and uses thereof” (WISCONSIN ALUMNI RESEARCH FOUNDATION, priority 2014, dated 2024).

Columns and labels:
yeast = conditions: against yeast, literature values; cited from earlier work
yeast cells = assay: Cell leakage assay (FungaLight, flow cytometry); format: cell-based, Saccharomyces cerevisiae; conditions: 4 h
Method: A FungaLight Cell Viability Assay (L34952; Invitrogen) using a Guava Flow Cytometer (Millipore) was used to determine if poacic acid caused membrane damage. The population of stained cells (damaged integrity) vs. nonstained cells can be determined by flow cytometry. Caspofungin (50 ng/mL) was included as a positive control. MMS and DMSO were included as a noncell wall-targeting control and a solvent control, respectively. To test the effects of the compounds on both active and arrested cells, log-phase cultures were washed with 1×PBS and resuspended to an OD0.5 in either YPD medium or YP (no carbon source) in the presence of the drugs (n=3) for 4 h at 30° C. The cells were then stained and immediately read by flow cytometry. One-way ANOVA and Tukey's test were used to calculate the difference between drug treatments among cells with arrested growth.

O=C1C2CC=CCC2C(=O)N1SC(Cl)(Cl)Cl (stereo not drawn) [captan]
IC50 (yeast): 19 µM

CC[C@H](C)C[C@H](C)CCCCCCCCC(=O)N[C@H]1C[C@@H](O)[C@@H](NCCN)NC(=O)[C@@H]2[C@@H](O)CCN2C(=O)[C@H]([C@H](O)CCN)NC(=O)[C@H]([C@H](O)[C@@H](O)c2ccc(O)cc2)NC(=O)[C@@H]2C[C@@H](O)CN2C(=O)[C@H]([C@@H](C)O)NC1=O [caspofungin]
cell leakage (propidium iodide uptake) (yeast cells; actively growing cells (YPD)): caused rapid cell leakage | cell leakage (propidium iodide uptake) (yeast cells; arrested cells without carbon source (YP)): diminished

c1ccc2[nH]c(-c3cscn3)nc2c1 [thiabendazole]
IC50 (yeast): 607 µM

NC(=O)OC[C@H](O)[C@@H](O)[C@H](N)C(=O)N[C@H](C(=O)O)[C@H]1O[C@@H](n2cc(C(=O)O)c(=O)[nH]c2=O)[C@H](O)[C@@H]1O [polyoxin D]
IC50 (yeast): 340 µM

CCCN(CCOc1c(Cl)cc(Cl)cc1Cl)C(=O)n1ccnc1 [prochloraz]
IC50 (yeast): 132 µM

CO/C=C(/C(=O)OC)c1ccccc1COc1cccc(C(F)(F)F)n1 [picoxystrobin]
IC50 (yeast): 308 µM

O=S(=O)([O-])[O-].[Cu+2] [copper sulfate]
IC50 (yeast): 2400 µM

COS(C)(=O)=O [MMS, methyl methanesulfonate]
cell leakage (propidium iodide uptake) (yeast cells; actively growing cells (YPD)): did not
